Measurements published in EP1247803A2, “Indolinone compounds suitable for modulation of protein kinases” (Sugen, Inc., priority 1996, dated 1998).

Legend:
[1] = target: T1, FLK-1 receptor (Mus musculus, UniProt P35918); test: FLK-1 ELISA (kinase activity of the FLK-1 receptor in FLK-1/NIH3T3 cells, VEGF stimulated); type: cell-based; parameters: concentration or dose not given beside the values
T1 construct: expressed in transfected cells; host or cells: NIH3T3 C7#3
Description: An enzyme linked immunosorbent assay (ELISA) was conducted to measure the catalytic activity of the FLK-1 receptor and more specifically, the inhibition or activation of indolinone compounds on the catalytic activity of the FLK-1 receptor. Specifically, the following assay was conducted to measure catalytic activity of the FLK-1 receptor in FLK-1/NIH3T3 cells.
The materials and protocol for the FLK-1 ELISA assay are as described in International Patent Publication No. WO 96/40116, published December 19, 1996 by Tang et al.
Selected compounds were tested in the FLK-1 ELISA assay.
An ELISA assay was conducted to measure the kinase activity of the FLK-1 receptor and more specifically, the inhibition or activation of protein tyrosine kinase activity on the FLK-1 receptor. Specifically, the following assay was conducted to measure kinase activity of the FLK-1 receptor in FLK-1/NIH3T3 cells.
Materials. The following reagents and supplies were used: • a. […] Cappel goat anti-rabbit IgG (catalog no. 55641); • c. PBS (Gibco Catalog No. 450-1300EB); • d. TBSW Buffer (50 mM Tris (pH 7.2), 150 mM NaCl and 0.1% Tween-20); • e. Ethanolamine stock (10% ethanolamine (pH 7.0), stored at 4°C); • f. HNTG buffer (20mM HEPES buffer (pH 7.5), 150mM NaCl, 0.2% Triton X-100, and 10% glycerol); • g. EDTA (0.5 M (pH 7.0) as a 100X stock); • h. Sodium ortho vanadate (0.5 M as a 100X stock); • i. Sodium pyro phosphate (0.2M as a 100X stock); • j. NUNC 96 well V bottom polypropylene plates (Applied Scientific Catalog No. AS-72092); • k. NIH3T3 C7#3 Cells (FLK-1 expressing cells); • l. DMEM with 1X high glucose L Glutamine (catalog No. 11965-050); • m. FBS, Gibco (catalog no. 16000-028); • n. L-glutamine, Gibco (catalog no. 25030-016); • o. VEGF, PeproTech, Inc. (catalog no. 100-20)(kept as 1 µg/100 µl stock in Milli-Q dH2O and stored at -20°C; • p. Affinity purified anti-FLK-1 antiserum which can be obtained or purified as follows: • 1. Prepare a Tresyl-Activated Agarose/Flk-1-D column by incubating 10 ml of Tresyl-Activated Agarose with 20 mg of purified GST-Flk-1-D fusion protein in 100mM sodium bicarbonate (pH 9.6) buffer overnight at 4 °C. • 2. Wash the column once with PBS. • 3. Block the excess sites on the column with 2 M glycine for 2 hours at 4°C. • 4. Wash the column with PBS. • 5. Incubate the column with Rabbit anti-Flk-1D production bleed for 2 hours at 4 °C. • 6. Wash the column with PBS. • 7. Elute antiserum with 100 mM Citric Acid, pH3.0 and neutralize the eluate immediately with 2 M Tris, pH 9.0. • 8. Dialyize the eluate against PBS overnight at 4 °C with 3 changes of buffer (sample to buffer ratio is 1:100). • 9. Adjust the dialyized antiserum to 5% glycerol and store at -80 °C in small aliquotes. • q.
Protocol. The following protocol was used for conducting the assay: • 1. Coat Corning 96-well elisa plates with 1.0µg per well Cappel Anti-rabbit IgG antibody in 0.1M Na2CO3 pH 9.6. Bring final volume to 150 µl per well. Coat plates overnight at 4°C. Plates can be kept up to two weeks when stored at 4°C. • 2. Grow cells in Growth media(DMEM, supplemental with 2.0mM L-Glutamine, 10% FBS) in suitable culture dishes until confluent at 37°C, 5% CO2. • 3. Harvest cells by trypsinization and seed in Corning 25850 polystyrene 96-well roundbottom cell plates, 25.000 cells/well in 200µl of growth media. • 4. Grow cells at least one day at 37°C, 5% CO2. • 5. Wash cells with D-PBS 1X. • 6. Add 200µl/well of starvation media (DMEM, 2.0mM 1-Glutamine, 0.1% FBS). Incubate overnight at 37°C, 5% CO2. • 7. Dilute Compounds/Extracts 1:20 in polypropylene 96 well plates using starvation media. Dilute dimethylsulfoxide 1:20 for use in control wells. • 8. Remove starvation media from 96 well cell culture plates and add 162 µl of fresh starvation media to each well. • 9. Add 18µl of 1:20 diluted Compound/Extract dilution (from step 7) to each well plus the 1:20 dimethylsulfoxide dilution to the control wells (+/- VEGF), for a final dilution of 1:200 after cell stimulation. […]

[2] = tested on: MET; test: MET biochemical kinase assay; parameters: species or system human; concentration or dose not given beside the values
From the text: A met biochemical kinase assay may be performed for met generally as described above for other kinases by substituting that or the other kinases. In particular, ELISA plates are coated with goat anti-rabbit Fc antibodies, which are used to capture commercially available (from Santa Cruz Biotechnology) rabbit polyclonal antibodies to the cytoplasmic domain of human MET. […] The chimeric receptors, or MET, from these lysates are captured on the antibody coated plates. After washing away extraneous proteins, test compounds are added and an in vitro kinase assay is performed by addition of an appropriate kinase buffer (containing ATP, divalent metal ions, etc.). Incorporation of phosphate into the captured receptors is detected with an anti-phosphotyrosine antibody conjugate with horse radish peroxidase using TMB as a substrate for colorimetric detection.

T1 sequence (P35918 20-1345): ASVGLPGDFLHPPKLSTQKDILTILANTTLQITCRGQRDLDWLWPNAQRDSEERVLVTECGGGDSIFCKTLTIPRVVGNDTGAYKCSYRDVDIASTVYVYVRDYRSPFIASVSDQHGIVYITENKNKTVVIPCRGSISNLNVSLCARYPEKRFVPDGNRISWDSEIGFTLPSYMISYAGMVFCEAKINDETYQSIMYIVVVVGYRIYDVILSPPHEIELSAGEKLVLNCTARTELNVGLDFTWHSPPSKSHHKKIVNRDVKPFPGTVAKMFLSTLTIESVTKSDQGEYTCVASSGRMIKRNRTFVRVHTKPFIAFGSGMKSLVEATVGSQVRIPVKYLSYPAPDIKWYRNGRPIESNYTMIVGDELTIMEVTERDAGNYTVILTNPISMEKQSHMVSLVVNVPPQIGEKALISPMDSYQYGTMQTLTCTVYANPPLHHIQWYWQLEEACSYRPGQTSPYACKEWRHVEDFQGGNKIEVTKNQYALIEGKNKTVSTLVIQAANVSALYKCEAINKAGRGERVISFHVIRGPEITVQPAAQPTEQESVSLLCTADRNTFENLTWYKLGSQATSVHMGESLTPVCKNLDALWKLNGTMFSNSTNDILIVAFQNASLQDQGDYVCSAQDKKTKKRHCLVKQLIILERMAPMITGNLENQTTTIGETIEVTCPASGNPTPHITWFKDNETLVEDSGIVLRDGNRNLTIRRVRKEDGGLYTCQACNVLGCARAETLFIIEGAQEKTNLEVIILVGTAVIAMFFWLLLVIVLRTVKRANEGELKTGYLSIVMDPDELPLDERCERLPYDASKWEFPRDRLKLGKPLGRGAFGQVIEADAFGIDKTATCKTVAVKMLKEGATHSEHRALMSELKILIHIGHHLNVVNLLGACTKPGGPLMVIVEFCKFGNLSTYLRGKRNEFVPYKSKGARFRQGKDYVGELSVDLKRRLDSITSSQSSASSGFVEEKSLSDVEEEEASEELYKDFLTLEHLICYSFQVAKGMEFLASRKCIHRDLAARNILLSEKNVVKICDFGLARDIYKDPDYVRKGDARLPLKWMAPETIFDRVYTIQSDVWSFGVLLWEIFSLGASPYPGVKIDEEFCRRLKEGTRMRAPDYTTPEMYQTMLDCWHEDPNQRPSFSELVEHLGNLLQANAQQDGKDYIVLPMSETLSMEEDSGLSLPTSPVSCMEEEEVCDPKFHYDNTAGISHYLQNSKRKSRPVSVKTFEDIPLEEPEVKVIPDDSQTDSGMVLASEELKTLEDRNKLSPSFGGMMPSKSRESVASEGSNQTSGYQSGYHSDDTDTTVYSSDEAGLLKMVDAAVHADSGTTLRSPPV

SMILES | Fik Kinase %Inhibition [1] [%] | Met Kinase % Inhibition [2] [%]
CC(C)c1cc(C=C2C(=O)Nc3ccc(I)cc32)cc(C(C)C)c1Oc1ccccc1 [10732/B04] | -1.3 | 79.5
COc1ccc(C=C2C(=O)Nc3ccc(I)cc32)cc1C(C)(C)C [10732/B05] | 2.8 | 71.2
CC(C)(C)c1cc(C=C2C(=O)Nc3ccc(I)cc32)ccc1OCc1ccccc1 [10732/B06] | 8.1 | 74.3
COc1c(Br)cc(C=C2C(=O)Nc3ccc(I)cc32)cc1C(C)(C)C [10732/B07] | 1.6 | 75.1
CC(C)(C)c1cc(C=C2C(=O)Nc3ccc(I)cc32)cc(Br)c1OCc1ccccc1 [10732/B08] | 8.0 | 64.4
COc1c(Cl)cc(C=C2C(=O)Nc3ccc(I)cc32)cc1C(C)(C)C [10732/B09] | 14.0 | 69.2
CC(C)(C)c1cc(C=C2C(=O)Nc3ccc(I)cc32)cc(Cl)c1OCc1ccccc1 [10732/B10] | 12.1 | 51.5
COc1c(I)cc(C=C2C(=O)Nc3ccc(I)cc32)cc1C(C)(C)C [10732/B11] | 9.0 | 73.7
Cc1c(Br)ccc2c1C(=CC(c1cccs1)C(F)(F)F)C(=O)N2 (stereo not drawn) [10732/C02] | 11.9 | 40.1
COc1c(C(C)C)cc(C=C2C(=O)Nc3ccc(Br)c(C)c32)cc1C(C)C [10732/C03] | 14.7 | 14.0
Cc1c(Br)ccc2c1C(=Cc1cc(C(C)C)c(Oc3ccccc3)c(C(C)C)c1)C(=O)N2 [10732/C04] | 12.8 | 30.6
COc1ccc(C=C2C(=O)Nc3ccc(Br)c(C)c32)cc1C(C)(C)C [10732/C05] | 11.2 | 18.5
Cc1c(Br)ccc2c1C(=Cc1ccc(OCc3ccccc3)c(C(C)(C)C)c1)C(=O)N2 [10732/C06] | 11.8 | 21.6
COc1c(Br)cc(C=C2C(=O)Nc3ccc(Br)c(C)c32)cc1C(C)(C)C [10732/C07] | 15.4 | 26.5
Cc1c(Br)ccc2c1C(=Cc1cc(Br)c(OCc3ccccc3)c(C(C)(C)C)c1)C(=O)N2 [10732/C08] | 7.6 | 54.5
COc1c(Cl)cc(C=C2C(=O)Nc3ccc(Br)c(C)c32)cc1C(C)(C)C [10732/C09] | 8.0 | 37.9
Cc1c(Br)ccc2c1C(=Cc1cc(Cl)c(OCc3ccccc3)c(C(C)(C)C)c1)C(=O)N2 [10732/C10] | 15.1 | 43.0
COc1c(I)cc(C=C2C(=O)Nc3ccc(Br)c(C)c32)cc1C(C)(C)C [10732/C11] | 18.2 | 31.9
CNS(=O)(=O)c1ccc2c(c1)C(=CC(c1cccs1)C(F)(F)F)C(=O)N2 (stereo not drawn) [10732/D02] | 9.2 | 50.2
CNS(=O)(=O)c1ccc2c(c1)C(=Cc1cc(C(C)C)c(OC)c(C(C)C)c1)C(=O)N2 [10732/D03] | 22.5 | 24.9
CNS(=O)(=O)c1ccc2c(c1)C(=Cc1cc(C(C)C)c(Oc3ccccc3)c(C(C)C)c1)C(=O)N2 [10732/D04] | 24.6 | 40.7
CNS(=O)(=O)c1ccc2c(c1)C(=Cc1ccc(OC)c(C(C)(C)C)c1)C(=O)N2 [10732/D05] | 15.7 | 30.2
CNS(=O)(=O)c1ccc2c(c1)C(=Cc1ccc(OCc3ccccc3)c(C(C)(C)C)c1)C(=O)N2 [10732/D06] | 16.3 | 24.3
CNS(=O)(=O)c1ccc2c(c1)C(=Cc1cc(Br)c(OC)c(C(C)(C)C)c1)C(=O)N2 [10732/D07] | 14.7 | 43.2
CNS(=O)(=O)c1ccc2c(c1)C(=Cc1cc(Br)c(OCc3ccccc3)c(C(C)(C)C)c1)C(=O)N2 [10732/D08] | 33.3 | 49.4
CNS(=O)(=O)c1ccc2c(c1)C(=Cc1cc(Cl)c(OC)c(C(C)(C)C)c1)C(=O)N2 [10732/D09] | 15.2 | 40.3
CNS(=O)(=O)c1ccc2c(c1)C(=Cc1cc(Cl)c(OCc3ccccc3)c(C(C)(C)C)c1)C(=O)N2 [10732/D10] | 25.5 | 33.1
